Reference: article PMC10517462, “Small molecule targeting of the p38/Mk2 stress signaling pathways to improve cancer treatment” (BMC Cancer, 2023)

Test: Pharmacokinetics of MK2.III in CD-1 mice (HPLC-MS/MS)
Assay type: in vivo, CD-1 mouse
Protocol: We investigated the pharmacokinetics (PK) and bioavailability of small molecules (MK2.III) with intraperitoneal and intravenous injection before studying its tumor suppressor properties in combination with DNA-damaging agents. For this set of experiments CD-1 mouse line (male,7 weeks, body weight of 23–25 g, n = 198, Charles River) was used with a one-time intraperitoneal injection (IP) of 2, 10, and 50 mg/kg doses of the MK2.III or 2 mg/kg intravenous injection (IV) of the same drug. The small molecule was prepared using PBS containing 10% DMSO. MK2.III was isolated from mouse serum using protein settling method with acetonitrile and drug concentrations were detected using HPLC – MS/MS.
Blood samples were obtained from the retro-orbital sinus (at […] for IV groups; at […] for IP groups, respectively) in polypropylene tubes containing 20 μl of 5% EDTA. Blood plasma was separated by centrifugation at 1500 g for 10 min and was stored at -80 °C until analysis. Data were obtained from six animals per time.
An Agilent 1260 Infinity system, a hybrid triple-quadrupole mass spectrometer, and QTRAP 5500 electrospray ionization were used for determining the MK2.III concentration in blood plasma. Separations were achieved using a YMC Triart C18 50 × 2,1 mm, 1,9 μm column. The mobile phase consisted of A (0.1% aqueous formic acid) and B (0.1% formic acid in acetonitrile). The gradient elution t = 0, A:B 95:5; t = 2 min A:B 5:95; t = 2.1 A:B 5:95; t = 2.2 A:B 95:5; t = 2.8 A:B 95:5; flow rate was 0.5 mL min − 1; Retention time—2.8 min. The injection volume was 2 μL. The temperature of the column was set at 40 °C. Tolbutamide was selected as an internal standard. Thawed plasma (45 μL) was transferred to a microtube (1.1 mL volume), treated with a standard solution (5 μL) of the analytes in acetonitrile: water (1:1), stirred on a vortex mixer for 10 s, treated with tolbutamide solution (200 ng/ml), stirred again on the vortex mixer for 10 s, and then proteins were precipitated in the cold at + 4 °C for 15 min, centrifuged for 10 min at 1500 g. The supernatant (150 µl) was transferred to a clean 96-well plate for HPLC–MS/MS analysis. Samples were stored at a temperature not exceeding -70 °C until analysis. The calculation of pharmacokinetic parameters was performed by using Phoenix® WinNonlin® software, version 6.3 (Pharsight Corp., Cary, NC, USA).

[1] = 2 mg/kg intraperitoneal, mice serum
[2] = 10 mg/kg intraperitoneal, mice serum
[3] = 50 mg/kg intraperitoneal, mice serum

- AUClast [1]: 1,99 hr*ng/ml
- Cmax [1]: 2,15 ng/ml
- MRTlast [1]: 1,28 hr
- Tmax [1]: 2 h
- Highest concentration of the drug in serum (2 mg/kg intravenous, at the time of the injection): 11 ng/mL
- Serum concentration (2 mg/kg intravenous, one-hour interval): 2.15 ng/mL
- AUCinf [2]: 203 ng·h/mL
- AUClast [2]: 130 ng·h/mL
- Cl/F [2]: 821 mL/min/kg
- Cmax [2]: 38,3 ng/ml
- Kel [2]: 0,05 1/hr
- MRTinf [2]: 21,7 hr
- MRTlast [2]: 8,59 hr
- T1/2 [2]: 14,4 hr
- Tmax [2]: 0,5 hr
- Vz/F [2]: 1027 L/kg
- AUCinf [3]: 548 ng·h/mL
- AUClast [3]: 227 ng·h/mL
- Cl/F [3]: 1520 mL/min/kg
- Cmax [3]: 42,4 ng/ml
- Kel [3]: 0,02 1/hr
- MRTinf [3]: 42,3 hr
- MRTlast [3]: 10,3 hr
- T1/2 [3]: 28,3 hr
- Tmax [3]: 0,5 hr
- Vz/F [3]: 3718 L/kg
- Cmax (higher doses (10 and 50 mg/kg) intraperitoneal, within 30 min after injection): around 40 ng/ml
- Linearity of pharmacokinetics (range of 2-50 mg/kg dose, intraperitoneal): does not represent linearity
Structure (SMILES): O=C1NCCc2[nH]c(-c3ccnc(-c4cnc5ccccc5c4)c3)cc21 [MK2.III]
